Data: patent publication US10870638B2, “Pyridazinone compound or its salt, and herbicide containing it” (ISHIHARA SANGYO KAISHA, LTD., priority 2016, dated 2020)

Tests used:
Assay in all cases: Test Example 1: foliar treatment, growth inhibition rate on 14th day
Assay type in all cases: in vivo
Settings in all cases: active ingredient amount 31 g/ha, 14th day after application
[1] = test system: barnyardgrass (Echinochloa crus-qalli L.)
From the text: (§1) Upland field soil was put into a 1/300,000 hectare pot, and seeds of various plants were sown. When the respective plants reached predetermined leaf stage ((1) barnyardgrass (Echinochloa crus-[…].): 0.5 to 2.9 leaf stage, (2) crabgrass (Digitaria sanquinalis L.): 0.5 to 3.0 leaf stage, (3) green foxtail (Setaria viridis L.): 0.5 to 3.2 leaf stage, (4) wild oat (Avena fatua L.): 0.4 to 1.2 leaf stage, (5) italian ryegrass (Lolium multiflorum Lam.): 0.4 to 2.0 leaf stage, (6) redroot pigweed (Amaranthus retroflexus L.): cotyledon stage to 2.2 leaf stage, (7) rice (Oryza sativa L.): 0.2 to 2.7 leaf stage, (8) corn (Zea mays L.): 1.7 to 3.6 leaf stage, (9) wheat (Triticum aestivum L.): 1.3 to 2.3 leaf stage, (10) soybean (Glycine max Merr.); primary leaf stage), wettable powders or emulsifiable concentrates of the compounds of the present invention prepared in accordance with a conventional preparation method, were weighed so as to achieve the prescribed active ingredient amounts, and diluted with water in an amount corresponding to 1,000 liters per 1 hectare (containing 0.1 vol % of an agricultural spreader (surfactant WK manufactured by MARUWA BIOCHEMICAL Co., Ltd.)), and the spray solutions thus prepared were applied for foliar treatment by a small sprayer. On the 14th day after the application, the state of growth of the respective plants was visually observed, and the herbicidal effect was evaluated by a growth inhibition rate (%) of 0 (equivalent to the non-treated area) to 100 (complete kill).

corn (Zea mays L.) = test system: corn (Zea mays L.)
From the text: as §1

[2] = test system: crabgrass (Digitaria sanquinalis L.)
From the text: as §1

[3] = test system: green foxtail (Setaria viridis L.)
From the text: as §1

[4] = test system: italian ryegrass (Lolium multiflorum Lam.)
From the text: as §1

[5] = test system: redroot pigweed (Amaranthus retroflexus L.)
From the text: as §1

rice (Oryza sativa L.) = test system: rice (Oryza sativa L.)
From the text: as §1

[6] = test system: soybean (Glycine max Merr.)
From the text: as §1

[7] = test system: wheat (Triticum aestivum L.)
From the text: as §1

[8] = test system: wild oat (Avena fatua L.)
From the text: as §1

[9] = visual, 0 = non-treated, 100 = complete kill

Row | SMILES | Growth inhibition rate (%) Barnyardgrass [1] | Growth inhibition rate (%) Corn (corn (Zea mays L.)) | Growth inhibition rate (%) Crabgrass [2] | Growth inhibition rate (%) Green foxtail [3] | Growth inhibition rate (%) Italian ryegrass [4] | Growth inhibition rate (%) Redroot pigweed [5] | Growth inhibition rate (%) Rice (rice (Oryza sativa L.)) | Growth inhibition rate (%) Soybean [6] | Growth inhibition rate (%) Wheat [7] | Growth inhibition rate (%) Wild oat [8] | Growth inhibition rate (%) Barnyardgrass [1, 9] | Growth inhibition rate (%) Corn (corn (Zea mays L.); [9]) | Growth inhibition rate (%) Crabgrass [2, 9] | Growth inhibition rate (%) Green foxtail [3, 9] | Growth inhibition rate (%) Italian ryegrass [4, 9] | Growth inhibition rate (%) Redroot pigweed [5, 9] | Growth inhibition rate (%) Rice (rice (Oryza sativa L.); [9]) | Growth inhibition rate (%) Soybean [6, 9] | Growth inhibition rate (%) Wheat [7, 9] | Growth inhibition rate (%) Wild oat [8, 9]
1 | CCc1nn(C)c(=O)c(-c2cc(Oc3ncc(C(F)(F)F)cc3Cl)ccc2C)c1OC(C)OC(=O)OC (stereo not shown) [1-139] | 100% | 50% | 80% | 60% | 98% | 0% | 20% | 15% | 45% | 88% | – | – | – | – | – | – | – | – | – | –
2 | CC(=O)Oc1c(C)nn(C)c(=O)c1-c1cc(Oc2nc3cc(Cl)ccc3o2)ccc1C [Compound 2-139] | 90% | 65% | 98% | 90% | 98% | 0% | 98% | 10% | 95% | 98% | – | – | – | – | – | – | – | – | – | –
3 | Cc1ccc(Oc2nc3cc(F)ccc3o2)cc1-c1c(O)cnn(C)c1=O [Compound 2-184] | 95% | 40% | 95% | 99% | 35% | 0% | 60% | 30% | 10% | 30% | – | – | – | – | – | – | – | – | – | –
4 | Cc1ccc(Oc2cnc3cc(Cl)ccc3n2)cc1-c1c(OCOCCCl)c(C)nn(C)c1=O [Compound 3-81] | – | – | – | – | – | – | – | – | – | – | 99% | 0% | 93% | 99% | 95% | 0% | 0% | 0% | 25% | 95%
5 | CC(=O)Oc1c(C)nn(C)c(=O)c1-c1cc(Oc2ccc(C(F)(F)F)cc2)ccc1C [Compound 2-118] | 85% | 20% | 40% | 60% | 70% | 0% | 80% | 10% | 50% | 88% | – | – | – | – | – | – | – | – | – | –
6 | COC(=O)CCC(=O)Oc1c(C)nn(C)c(=O)c1-c1cc(Oc2cnc3cc(Cl)ccc3n2)ccc1C [Compound 3-46] | – | – | – | – | – | – | – | – | – | – | 100% | 50% | 99% | 100% | 100% | 20% | 98% | 35% | 98% | 100%
7 | Cc1ccc(Oc2cnc3cc(Cl)ccc3n2)cc1-c1c(OC(=S)Oc2ccccc2)c(C)nn(C)c1=O [Compound 3-62] | – | – | – | – | – | – | – | – | – | – | 100% | 60% | 99% | 99% | 93% | 0% | 0% | 20% | 90% | 99%
8 | COC(=O)OC(C)Oc1c(C)nn(C)c(=O)c1-c1cc(Oc2cnc3cc(Cl)ccc3n2)ccc1C (stereo not shown) [Compound 3-44] | 100% | 20% | 99% | 100% | 98% | 0% | 85% | 10% | 85% | 100% | – | – | – | – | – | – | – | – | – | –
9 | Cc1ccc(Oc2ncc(C(F)(F)F)cc2Cl)c(C)c1-c1c(O)c(C)nn(C)c1=O [1-13] | 100% | 88% | 95% | 100% | 70% | 0% | 40% | 0% | 20% | 75% | – | – | – | – | – | – | – | – | – | –
10 | Cc1ccc(Oc2nc3ccc(Cl)cc3o2)cc1-c1c(O)cnn(CC(F)F)c1=O [Compound 2-179] | 88% | 75% | 98% | 100% | 0% | 0% | 0% | 0% | 10% | 0% | – | – | – | – | – | – | – | – | – | –
11 | Cc1ccc(Oc2cnc3cc(Cl)ccc3n2)cc1-c1c(OC(=O)c2cn(C)nc2C)c(C)nn(C)c1=O [Compound 3-43] | 100% | 40% | 98% | 100% | 98% | 0% | 80% | 10% | 95% | 98% | – | – | – | – | – | – | – | – | – | –
12 | CC(=O)Oc1c(C)nn(C)c(=O)c1-c1cc(Oc2ncc3cc(Br)ccc3n2)ccc1C [Compound 2-123] | 90% | 0% | 10% | 83% | 0% | 0% | 50% | 0% | 90% | 10% | – | – | – | – | – | – | – | – | – | –
13 | COc1ccc(Oc2ncc(C(F)(F)F)cc2Cl)cc1-c1c(O)c(C)nn(C)c1=O [1-10] | 70% | 60% | 90% | 90% | 0% | 0% | 0% | 20% | 0% | 20% | – | – | – | – | – | – | – | – | – | –
14 | Cc1ccc(Oc2cnc3cc(Cl)ccc3n2)cc1-c1c(OC(=O)Cc2ccccc2)c(C)nn(C)c1=O [Compound 3-47] | – | – | – | – | – | – | – | – | – | – | 100% | 40% | 99% | 100% | 99% | 0% | 30% | 20% | 98% | 99%
15 | COC(=O)OC(C)Oc1c(C)nn(C)c(=O)c1-c1cc(Oc2ncc(C(F)(F)F)cc2Cl)c(C)cc1C (stereo not shown) [1-151] | 99% | 35% | 99% | 95% | 83% | 30% | 65% | 0% | 10% | 95% | – | – | – | – | – | – | – | – | – | –
16 | CC(=O)Oc1c(C)nn(C)c(=O)c1-c1cc(Nc2ncc(C(F)(F)F)cc2Cl)ccc1C [1-146] | 98% | 75% | 90% | 93% | 70% | 0% | 0% | 10% | 85% | 88% | – | – | – | – | – | – | – | – | – | –
